According to patent US11213524B2, “Pharmaceutical compositions for subcutaneous administration of levosimendan” (Tenax Therapeutics, Inc., priority 2018, dated 2022):

Columns and labels:
[1] = cited from earlier work
[2] = Solubility of levosimendan at different Captisol concentrations (HPLC); assay type: physicochemical; details: 10 mM phosphate buffer, pH 7, Captisol 0, 50, 100, 200, 400 mg/ml, room temperature
Method: A study was conducted to evaluate the impact of the concentration of the cyclodextrin or cyclodextrin derivative on the solubility of levosimendan. In particular, the study focused on the cyclodextrin derivative, Captisol® (sulfobutylether beta-cyclodextrin).
The study compared compositions comprising levosimendan, 10 mM phosphate buffer, and Captisol® at the following concentrations: 0 mg/ml (i.e., no Captisol®), 50 mg/ml, 100 mg/ml, 200 mg/ml, and 400 mg/ml. The compositions with Captisol® were prepared by mixing the levosimendan and Captisol®, and adding the 10 mM phosphate buffer until the pH of the composition was 7. The compositions were stored at room temperature.
Captisol®'s impact on the solubility of levosimendan was determined using HPLC.

[3] = Storage stability of lyophilized levosimendan/Captisol composition (HPLC % area); assay type: physicochemical; details: for quantity of OR-1420: after 6 months
Method: A study was conducted to determine the stability of a levosimendan composition of the present invention stored under different conditions for up to six months.
The composition used for the study comprised 3 mg/ml of levosimendan and 200 mg/ml of Captisol®. To prepare the composition, the levosimendan and Captisol® were mixed together, adjusted to a pH of 7.4 using 1N NaOH, and then lyophilized.
Samples were dissolved in 50% acetonitrile and stored frozen at approximately −20° C. The compositions were analyzed at the following time points: 0, 1-month, 2-months, 4-months, and 6-months. The compositions were taken out of storage and reconstituted using distilled water. A sample from each composition was diluted at 15x-150x and analyzed using HPLC (Sciex API 3200 Linear Ion Trap, Shimadzu LC-20ADVP HPLC Pumps, Shimadzu Controller SCL-10AVP, Shimadzu Autosampler SIL-20ADVP) under the following conditions: Column, Restek Raptor Biphenyl, 2.7 μm, 100×3 mm; Mobile phase A, 5 mM Ammonium Formate/0.1% FA in H2O; Mobile phase B, 100% methanol).

[4] = Pharmacokinetic study, IV vs subcutaneous dosing, plasma levosimendan and OR-1896 by HPLC/MS/MS; details: male, Sprague Dawley, rat, in vivo
Method: A pharmacokinetic study was conducted in male Sprague Dawley rats to compare subcutaneous administration of a composition of the present invention with IV administration of a formulation of levosimendan. The study evaluated levosimendan blood levels and pain at the injection site.
This study involved comparing the results of administering two subcutaneous compositions according to embodiments of the present invention to a previous pharmacokinetic study in which male rats were dosed by tail vein levosimendan as an IV bolus injection at 0.5 mg/kg using a 0.25 mg/ml solution. […]
Plasma samples were analyzed for levosimendan and OR-1896 (the primary metabolite) by HPLC/MS/MS. […]

[5] = after four months, 25° C./60% RH
[6] = after six months, 25° C./60% RH

SMILES: CC(=O)Nc1ccc(C2=NNC(=O)C[C@H]2C)cc1 [OR-1896]
- time at which maximum concentrations of OR-1896 are seen ([1]; after starting a 24-hour infusion): 2 to 4 days
- half-life of OR-1896 ([1]; heart failure patients): 70 to 80 h

SMILES: C[C@@H]1CC(=O)NN=C1c1ccc(NN=C(C#N)C#N)cc1 [levosimendan, (−)-enantiomer of [[4-(1,4,5,6-tetrahydro-4-methyl-6-oxo-3-pyridazinyl)phenyl]hydrazono]prop anedinitrile]
- solubility of levosimendan [2]: increased as the concentration of Captisol® increased
- Levels of Levosimendan (% Area) ([3]; 3 mg/ml levosimendan, 200 mg/ml Captisol, lyophilized, T0): 99.98% Area
- Levels of Levosimendan (% Area) ([3]; 5° C., 1-month): 99.85% Area
- Levels of Levosimendan (% Area) ([3]; 5° C., 2-months): 100.00% Area
- Levels of Levosimendan (% Area) ([3]; 5° C., 4-months): 99.74% Area
- Levels of Levosimendan (% Area) ([3]; 5° C., 6-months): 99.73% Area
- Levels of Levosimendan (% Area) ([3]; 25° C./60% RH, 1-month): 99.75% Area
- Levels of Levosimendan (% Area) ([3]; 25° C./60% RH, 2-months): 99.79% Area
- Levels of Levosimendan (% Area) ([3]; 25° C./60% RH, 4-months): 99.51% Area
- Levels of Levosimendan (% Area) ([3]; 25° C./60% RH, 6-months): 99.49% Area
- Levels of Levosimendan (% Area) ([3]; 40° C./75% RH, 1-month): 99.51% Area
- Levels of Levosimendan (% Area) ([3]; 40° C./75% RH, 4-months): 98.88% Area
- Levels of Levosimendan (% Area) ([3]; 40° C./75% RH, 6-months): 98.37% Area
- Level of Degradants (% Area) ([3]; after four months, 5° C.): 99.91 % Area
- Level of Degradants (% Area) [3, 5]: 99.64 % Area
- Level of Degradants (% Area) ([3]; after four months, −20° C.): 99.93 % Area
- Level of Degradants (% Area) ([3]; after six months, 5° C.): 99.90 % Area
- Level of Degradants (% Area) [3, 6]: 99.57 % Area
- level of levosimendan ([3]; each storage condition, after six months): over 98%
- Levels of Levosimendan (% Area) ([3]; −20° C., 1-month): 99.83% Area
- Levels of Levosimendan (% Area) ([3]; −20° C., 4-months): 99.79% Area
- Levels of Levosimendan (% Area) ([3]; −20° C., 6-months): 99.72% Area
- Levels of Levosimendan (% Area) ([3]; −80° C., 1-month): 99.82% Area
- Levels of Levosimendan (% Area) ([3]; −80° C., 4-months): 99.74% Area
- Levels of Levosimendan (% Area) ([3]; −80° C., 6-months): 99.74% Area
- start of the β phase (loss of drug from blood mainly due to metabolism) [4]: about 2 hours
- share of total levosimendan dose reduced in the intestine to OR-1855 (minor pathway) ([1]; in vivo): approximately 6%
- terminal elimination half-life of levosimendan ([1]; in vivo): about 1 hour

SMILES: C[C@@H]1CC(=O)NN=C1c1ccc(N/N=C(\C#N)C(N)=O)cc1 [OR-1420]
- Level of OR-1420 (% Area) ([3]; 5° C., 1-month): 0.055% Area
- Level of OR-1420 (% Area) ([3]; 5° C., 4-months): 0.057% Area
- Level of OR-1420 (% Area) ([3]; 5° C., 6-months): 0.112% Area
- Level of OR-1420 (% Area) ([3]; 25° C./60% RH, 1-month): 0.155% Area
- Level of OR-1420 (% Area) ([3]; 25° C./60% RH, 2-months): 0.212% Area
- Level of OR-1420 (% Area) ([3]; 25° C./60% RH, 4-months): 0.285% Area
- Level of OR-1420 (% Area) ([3]; 25° C./60% RH, 6-months): 0.377% Area
- Level of OR-1420 (% Area) ([3]; 40° C./75% RH, 1-month): 0.436% Area
- Level of OR-1420 (% Area) ([3]; 40° C./75% RH, 4-months): 0.999% Area
- Level of OR-1420 (% Area) ([3]; 40° C./75% RH, 6-months): 1.420% Area
- quantity of OR-1420 ([3]; 40° C./75% RH): below 1.5%
- Level of OR-1420 (% Area) ([3]; T0): 0.021% Area
- Level of Degradants (% Area) ([3]; after four months, 5° C.): 0.057 % Area
- Level of Degradants (% Area) [3, 5]: 0.285 % Area
- Level of Degradants (% Area) ([3]; after four months, 40° C./75% RH): 0.999 % Area
- Level of Degradants (% Area) ([3]; after four months, −20° C.): 0.045 % Area
- Level of Degradants (% Area) ([3]; after four months, −80° C.): 0.084 % Area
- Level of Degradants (% Area) ([3]; after six months, 5° C.): 0.112 % Area
- Level of Degradants (% Area) [3, 6]: 0.377 % Area
- Level of Degradants (% Area) ([3]; after six months, 40° C./75% RH): 1.42 % Area
- Level of Degradants (% Area) ([3]; after six months, −20° C.): 0.082 % Area
- Level of Degradants (% Area) ([3]; after six months, −80° C.): 0.083 % Area
- quantity of OR-1420 ([3]; all other storage conditions): less than 0.5%
- Level of OR-1420 (% Area) ([3]; −20° C., 1-month): 0.050% Area
- Level of OR-1420 (% Area) ([3]; −20° C., 4-months): 0.045% Area
- Level of OR-1420 (% Area) ([3]; −20° C., 6-months): 0.082% Area
- Level of OR-1420 (% Area) ([3]; −80° C., 1-month): 0.055% Area
- Level of OR-1420 (% Area) ([3]; −80° C., 4-months): 0.084% Area
- Level of OR-1420 (% Area) ([3]; −80° C., 6-months): 0.083% Area
